Consider four molecules from patent US20120172298A1, “GLP-1 AND FGF21 COMBINATIONS FOR TREATMENT OF DIABETES TYPE 2” (Novo Nordisk A/S, priority 2009, published 2012).

Several values for one entry are separate records, joined by “and”; a condition that tells them apart may be missing. Equal values may be shown once.

The subject of test [1] is pancreatic islets from diabetic db/db mice. The test can be described thus: Restoration of glucose stimulated insulin release ex vivo (islet perifusion). Also on record: AUC for time 35-75 minutes (glucose response), single repetitions / AUC for time 75-140 minutes (forskolin response), single repetitions: unit not given here. The following applies: FGF21 = 50 nM Compound F1, GLP-1 = 100 nM Compound G3. Format: cell-based. As for the experimental part: This ex vivo example investigates the ability of pancreatic islets from diabetic db/db mice to restore, in response to treatment with FGF21 and GLP-1 compounds, the ability to release insulin in response to glucose stimulation.
Islets from 25 db/db mice (Charles River), 15 weeks of age, were isolated according to the following procedure:
Animals were killed by cervical dislocation and fixated with pins on a Styrofoam plate. Pancreata were removed and transferred to a Packard vial containing 5 ml collagenase (Life Science, grade II, cat. no. 100502) 300 units/ml (one pancreas/vial) which was kept on ice until all pancreata were removed. Then the pancreata were shaken in the Grant/Edmund S25 thermoshaker at 200 strokes/min. at 37° C. for 5 min. The tissue was transferred to a fresh vial containing 5 ml 150 units/ml collagenase (supernatant was discarded) and shaken again in the thermoshaker for 5 min. The tissue was further shaken 3-5 min. on the thermoshaker, and thereafter all shaking is done by hand for 5-10 sec. each time. These steps were repeated until all tissue was digested. The process was followed continuously under the stereomicroscope and once digested the tissue was pooled and collected in progressively fewer tubes. All supernatants were washed 3 times in HBSS+0.5% NCS (HBSS (10×) from Gibco, cat. no. 14060, is diluted 10× in H2O before use, Newborn Calf Serum (NCS) from Gibco, cat. no. 26010-066), allowed to sediment for 5 min. between each wash, and left on ice, following which the islets were ready for picking. Islets were purified by transferring a little bit of supernatant to a Petri dish, filling up with HBSS+NCS and subsequently transferring (by mouth pipetting) with a constriction pipette to a new Petri dish. From there the islet were re-picked until pure, and then incubated in RPMI 1640 medium (Gibco, cat no 61870-010)+10% NCS at 37° C.
After incubation, the islets were washed in Krebs Ringer solution (115 mM NaCl, 4.7 mM KCl, 2.6 mM CaCl2, 1.2 mM KH2PO4, 1.2 mM MgSO4, 10 mM HEPES, 0.2% BSA, 2 mM glutamine, 5 mM NaHCO3, pH 7.4) and subsequently used in an islet perifusion experiment (Suprafusion 2500 from Brandel). For each of the three preincubation conditions four perifusion columns each with 60 islets were used. The islets were placed in Bio-gel P2 (Bio-Rad. cat. no. 150-4114) in the columns with a nylon mesh below and above the gel. The islets were initially perifused for 40 minutes with Krebs Ringer solution containing 3 mM glucose to obtain a stable baseline of insulin release. After 40 minutes the buffer was exchanged to 15 mM glucose for 30 minutes (time 40-70 min). Then the buffer was exchanged to 15 mM glucose containing 10 μM forskolin (Tocris 1099, batch 3A/86008) for 40 minutes (time 70-110 min). Finally the buffer was exchanged to low glucose (3 mM) for 30 minutes (time 110-140 min). The buffer was set to flow through the perifusion system at a rate of 0.3 ml/minute. Samples were taken every 5 minutes from time 30 to 140 min. Samples were stored at −20° C. and subsequently analysed for insulin, essentially as described by Poulsen et al. in Journal of Biomolecular Screening 12(X); p. 1-8, 2007 (LOCI (Luminescent Oxygen Channeling Immunoassay) sandwich immunoassay).
The results (ng/ml insulin) are shown in Table 1 below as mean+/−standard error of mean (SEM). The figures for the control and the FGF21 compound are based on three repetitions (due to problems with one of the four columns in these two experiments), while the figures for the GLP-1 compound are based on four repetitions.
The corresponding Area Under the Curve (designated AUC) figures were also calculated, and for the statistics the Student's T-test was used.

The test system of the next test is 3T3-L1 adipocytes. The test is described as follows: FGF21 activity assay, glucose uptake in 3T3-L1 adipocytes. The class given is cell-based, mouse. As for the experimental part: The following assay may be used for determining the biological activity, or potency, of FGF21 compounds.
Mouse 3T3-L1 fibroblasts (e.g. available from ATCC, catalogue no. CL-173) are maintained in basal medium (DMEM (4500 mg/I Glucose) with 10% Fetal Bovine Serum (FBS) and Penicillin/Streptomycin). The cells are not allowed to reach confluence and should be passed (transferred to new vials) before reaching approx. 60% of confluency (by visual inspection).
For the glucose uptake assay, cells are plated 80,000 cells/well in a 24 well plate, or 20,000 cells/well in a 96 well plate, and when they reach confluency (high density, with a view to have differentiated adipose cells made), the medium is changed from basal medium to basal medium containing Troglitazone, IBMX, Dexamethasone (commercially available from, e.g., Sigma) and human insulin (commercially available from, e.g., Novo Nordisk A/S).
The cells are used 7-14, preferably 7-10, days after initiation of differentiation. […] The cells are lysed with Triton X-100 and lysates transferred to a 96 wells plate, microscint-40 (commercially available from, e.g., Perkin Elmer) is added and amount of tracer counted in a TOP-counter (e.g. a Packard top-counter from Perkin Elmer).
The EC50 of the FGF21 compound in question is calculated, and may be indicated relative to that of, e.g., compound F1.

Another test concerns the target human GLP-1 receptor (human, UniProt P43220 24-463). The test can be described thus: cell-based or functional assay.
Setting [2] is: insulin AUC per perifusion column.

Sequence of human GLP-1 receptor (P43220 24-463): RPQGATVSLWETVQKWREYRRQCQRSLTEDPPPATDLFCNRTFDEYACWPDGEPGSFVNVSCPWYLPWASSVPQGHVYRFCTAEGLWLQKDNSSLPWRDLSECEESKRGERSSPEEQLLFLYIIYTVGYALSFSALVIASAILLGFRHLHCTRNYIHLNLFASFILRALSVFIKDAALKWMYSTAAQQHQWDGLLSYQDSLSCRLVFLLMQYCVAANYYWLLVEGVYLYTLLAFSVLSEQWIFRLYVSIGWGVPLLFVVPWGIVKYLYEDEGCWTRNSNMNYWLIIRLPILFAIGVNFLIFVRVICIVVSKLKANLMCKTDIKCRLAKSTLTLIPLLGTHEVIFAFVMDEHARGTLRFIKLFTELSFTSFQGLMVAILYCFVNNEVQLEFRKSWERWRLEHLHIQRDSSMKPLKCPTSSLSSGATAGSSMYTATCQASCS

As to “N-epsilon26-[2-(2-{2-[2-(2-{2-[(S)-4-Carboxy-4-(17-carboxyheptadecanoylamino)butyrylamino]ethoxy}-ethoxy)acetylamino]ethoxy}ethoxy)acetyl][Aib8,Arg34]GLP-1-(7-37) [compound G3]”, in test [1] (setting [2]), the “AUC for time 35-75 minutes (glucose response), single repetitions” value was 450.5 and 528.5 and 492.9 and 367.8; the “AUC for time 75-140 minutes (forskolin response), single repetitions” value is 3339 and 4005 and 3037 and 2674. Moreover, in test [1] (insulin AUC, * FGF21 vs GLP-1), the “AUC for time 75-140 minutes (forskolin response), mean” value is “(mean 3239)”. Further, the “AUC for time 35-75 minutes (glucose response), mean” value in test [1] (insulin AUC, ** vs control) is “(mean 459.9**)”.
For “S-71-({2-[2-(2-{2-[2-(2-{2-[(S)-4-carboxy-4-(19-carboxynonadecanoyl-amino)butyrylamino]ethoxy}ethoxy)acetylamino]ethoxy}ethoxy)acetylamino]ethylcarbamoyl}methyl)-[Cys71]Met-FGF21 [compound F2]”, the “EC50 relative to that of compound F1” value with 3T3-L1 adipocytes is reported as 11%.

B1: N-alpha1-[2-(2-{2-[2-(2-{2-[(S)-4-carboxy-4-(17-carboxyheptadecanoylamino)butyrylamino]ethoxy}ethoxy)acetylamino]ethoxy}ethoxy)acetyl][Arg56, Arg59, Arg69, Arg122]-Met-FGF21 (protein, listed as Homo sapiens)
chain: HPIPDSSPLLQFGGQVRQRYLYTDDAQQTEAHLEIREDGTVGGAADQSPESLLQLRALRPGVIQILGVRTSRFLCQRPDGALYGSLHFDPEACSFRELLLEDGYNVYQSEAHGLPLHLPGNRSPHRDPAPRGPARFLPLPGLPPALPEPPGILAPQPPDVGSSDPLSMVGPSQGRSPSYAS
modifications: N-terminal Met; N-alpha fatty diacid-gGlu-OEG-OEG acylation; mat_peptide (1)..(181); DISULFID (75)..(93)
As for B1, the “EC50 relative to that of compound F1” value with 3T3-L1 adipocytes was found to be 30%.

B2: N-epsilon37-[2-(2-{2-[2-(2-{2-[(S)-4-Carboxy-4-({trans-4-[(19-carboxynonadecanoylamino)methyl]cyclohexanecarbonyl}amino)butyrylamino]ethoxy}ethoxy)acetylamino]e … (peptide)
peptide: HAEGTFTSDVSSYLEEQAAREFIAWLVRGRK
modifications: DesaminoHis at position 7 (GLP-1 numbering; position 1 of SEQ ID NO:3); Lys37 acylated at N-epsilon with 19-carboxynonadecanoyl-Trx-gamma-Glu-OEG-OEG albumin binder
Regarding B2, in the test with human GLP-1 receptor, the “EC50 of cAMP formation (AlphaScreen cAMP assay), relative to that of compound G1” value was ~5 times the EC50 of compound G1.
